# Test results reported in patent US5919668A, “Non-reducing saccharide and its production and use” (Kabushiki Kaisha Hayashibara Seibutsu Kagaku Kenkyujo, priority 1994, dated 1999).
# “Also recorded” adds a separate entry of the source.
# Key:
# [1] = Maillard reaction (coloration with glycine, absorbance at 480 nm); type: physicochemical; conditions: for Coloration degree at 480 nm: 10% saccharide, 1% glycine, 50 mM phosphate buffer pH7.0, 100° C., 90 minutes, 1 cm cuvette
# Description: Solutions of 10% saccharide preparation PI, PII, PIII, PIV or PV prepared in Experiment 4 and 1% glycine in 50 mM phosphate buffer (pH7.0) were incubated at 100° C. for 90 minuets, cooled and determined in 1 cm cuvette for absorbance at 480 nm. As control, maltotriose, maltotetraose, maltopentaose, maltohexaose and maltoheptaose which were used as the starting materials were treated similarly as above and determined for absorbance at 480 nm.
# 10% High-purity trehalose preparation, purity of 99.5%, obtained by the method in Experiment 17 and 1% glycine in 50 mM phosphate buffer (pH7.0) was incubated at 100° C. for 90 minutes, cooled and measured in lcm cuvette for absorbance at 480 nm. As control, glucose and maltose were treated similarly as above and then measured for absorbance at 480 nm.
# [2] = tested on: non-reducing saccharide-forming enzyme; type: biochemical, Rhizobium species M-11; conditions: for Composition: residual substrate: non-reducing saccharide-forming enzyme, 48 h, pH 7; for Composition: newly formed saccharide: 20% substrate, 2 units/g, 40° C., pH7.0, 48 hours
# Description: 20% Aqueous solutions of glucose, maltose, maltotriose, maltotetraose, maltopentaose, maltohexaose or maltoheptaose as substrate were prepared, added with 2 units/g substrate solid of the purified enzyme obtained in Experiment 2, allowed to react at 40° C. and pH7.0 for 48 hours, deionized and analyzed for reaction products on high-performance liquid chromatography using "WAKO BEADS WB-T-330", a product of Wako Pure Chemical Industries, Ltd., Osaka, Japan. The high-performance liquid chromatography was conducted at ambient temperature, where water as eluent was flowed at a rate of 0.5 ml/min and "Model RI-8012", a differential reflactometer commercialized by Tosoh Corp., Tokyo, Japan, was used for analysis.
# [3] = Properties of products (hygroscopicity, viscosity, stability, tonicity); type: physicochemical
# [4] = molecular target: T1, trehalose-releasing enzyme (Rhizobium sp. M-11, UniProt Q53238); type: biochemical, Rhizobium species M-11; conditions: trehalose-releasing enzyme, 48 h, pH 7
# T1 construct: M-11, about 58-68 kDa
# T1 sequence (Q53238 1-596): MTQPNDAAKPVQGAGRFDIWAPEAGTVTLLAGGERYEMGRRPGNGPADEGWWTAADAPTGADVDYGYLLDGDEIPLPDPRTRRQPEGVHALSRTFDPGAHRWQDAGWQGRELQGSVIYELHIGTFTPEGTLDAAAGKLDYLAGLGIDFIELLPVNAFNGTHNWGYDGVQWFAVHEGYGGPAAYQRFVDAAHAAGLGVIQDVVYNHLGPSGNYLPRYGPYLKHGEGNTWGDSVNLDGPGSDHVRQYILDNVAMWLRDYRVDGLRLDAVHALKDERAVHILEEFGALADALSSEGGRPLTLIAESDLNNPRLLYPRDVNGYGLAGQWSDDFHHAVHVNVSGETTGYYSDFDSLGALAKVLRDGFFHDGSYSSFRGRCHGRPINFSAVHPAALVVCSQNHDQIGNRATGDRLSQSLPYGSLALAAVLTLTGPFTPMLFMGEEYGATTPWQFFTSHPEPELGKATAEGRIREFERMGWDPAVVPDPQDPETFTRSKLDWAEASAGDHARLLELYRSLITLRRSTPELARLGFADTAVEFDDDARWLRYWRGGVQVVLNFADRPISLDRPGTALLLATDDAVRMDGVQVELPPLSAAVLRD
# Description: Alpha-glycosyl trehaloses as substrates were prepared in accordance with the method described in Japanese Patent Application No. 349,216/93. More particularly, 20% aqueous solutions of maltotriose, maltotetraose, maltopentaose, maltohexaose or maltoheptaose as reducing partial starch hydrolysate were added with 2 units/g substrate solid of a purified non-reducing saccharide-forming enzyme obtained by the method in […], reacted at 40° C. and pH7.0 for 48 hours, heated for inactivation, filtered, deionized, concentrated in conventional manner and applied to ion exchange column chromatography on a strongly-acidic cation exchange "XT-1016" in sodium form. The ion exchange resin was packed in 3 jacketed-stainless steel columns, inner diameter of 2.0 cm, length of 1 m, and the columns were cascaded, loaded with 5 v/v % reaction saccharide liquid against the resin and injected with 55° C. water at SV0.13 for fractionation while keeping the temperature inside the columns at 55° C., thus obtaining high-purity preparations of non-reducing saccharides with glucose polymerization degrees of 3 or higher.
# 20% Aqueous solutions of these five types of non-reducing saccharides or alpha-glycosyl trehaloses were prepared, added with 2 units/g substrate solid of the purified trehalose-releasing enzyme obtained in Experiment 15, reacted at 40° C. and pH7.0 for 48 hours, deionized and subjected to high-performance liquid chromatography on "WAKO BEADS WB-T-330" for analysis of reaction products. As control, maltotriose, maltotetraose, maltopentaose, maltohexaose and maltoheptaose were subjected to the purified trehalose-releasing enzyme similarly as above and then analyzed on high-performance liquid chromatography.
# [5] = Reducing power by the Somogyi-Nelson method, represented in terms of DE; type: physicochemical
# Description: The high-purity preparations of the newly formed saccharides were determined for reducing power by the Somogyi-Nelson method and represented in terms of DE.
# pig kidney trehalase = test: Degradation by pig kidney trehalase; type: biochemical; conditions: trehalose, or trehalose formed from PI-PV; pH5.7, 37° C., 18 hours for the latter
# Description: In order to purify trehalose from respective reaction products, they were decolored, deionized, concentrated and subjected to column fractionation on a strongly-acidic cation exchange of sodium form "XT-1016", followed by recovering high-purity fractions with trehalose contents of 97% or higher. The fractions were then concentrated to about 65% and allowed to standing at 25° C. for 2 days to crystallize out crystalline trehalose hydrate which was then separated and dried in vacuo to obtain a high-purity preparation with a trehalose content of 99% or higher. The yields against respective starting substrates on dry solid basis were as follows: from glycosyl trehalose, 9.5%; from maltosyl trehalose, 14.9%; from maltotriosyl trehalose, 16.0%; from maltotetraosyl trehalose, 18.5%; and from maltopentaosyl trehalose, 17.7%. […] As evident from the above results, the saccharides formed by subjecting alpha-glycosyl trehaloses to the trehalose-releasing enzyme were identified to be trehalose.
# [6] = Acute toxicity test, oral administration in mice; type: in vivo; conditions: mouse, in vivo; oral, mice
# Description: (§1) Acute toxicity tests were conducted on the non-reducing saccharide preparations PI, PII, PIII, PIV and PV prepared in Experiment 4, where they were orally administered to 7 week-old dd mice. […] Thus the LD50 of these saccharides was at least 50 g/kg or higher.
# (§2) An acute toxicity test was conducted on a high-purity trehalose preparation obtained by the method in Experiment 17, purity of 99.5%, where it was orally administered in mice. […] Thus its LD50 would be briefly 50 g/kg or higher.
# mice = test: Acute toxicity test, oral administration in mice; type: in vivo; conditions: oral, mice
# Description: as §1, §2
# [7] = Test for assimilation in vivo (blood sugar and insulin levels); conditions: 30 g oral, healthy men
# Description: In accordance with the method reported by Atsuji et al., Rinsho Eiyo (Clinical Nutrition), Vol.41, No. 2, pp.200-208 (1972), 30 g of a high-purity trehalose preparation, purity of 99.5%, obtained by the method in Experiment 17 was prepared into 20 w/v % aqueous solution and orally administered to healthy men, age of 26, 27, 28, 29, 30 or 31 years, after which their bloods were periodically sampled and measured for blood sugar and insulin levels. Glucose was used as control.
SMILES,Coloration degree at 480 nm [1],Composition: residual substrate [2],Composition: newly formed saccharide [2],Composition: residual substrate [4],other results
OC[C@H]1O[C@H](O[C@H]2O[C@H](CO)[C@@H](O)[C@H](O)[C@H]2O)[C@H](O)[C@@H](O)[C@@H]1O [Example A-5],–,–,–,–,Hygroscopicity (in words) [3]: substantially free of hygroscopicity
"OC[C@H]1OC(O)[C@H](O)[C@@H](O)[C@@H]1O (stereo partly drawn) [Glucose, glucose]",1.671,100.0%,–,–,Formation of new saccharides from substrate (in words) [2]: No saccharides were newly formed
"OC[C@H]1O[C@H](O[C@H]2[C@H](O)[C@@H](O)[C@@H](O[C@H]3[C@H](O)[C@@H](O)[C@@H](O[C@H]4[C@H](O)[C@@H](O)[C@@H](O[C@H]5[C@H](O)[C@@H](O)[C@@H](O[C@H]6[C@H](O)[C@@H](O)[C@@H](O[C@H]7[C@H](O)[C@@H](O)C(O)O[C@@H]7CO)O[C@@H]6CO)O[C@@H]5CO)O[C@@H]4CO)O[C@@H]3CO)O[C@@H]2CO)[C@H](O)[C@@H](O)[C@@H]1O (stereo partly drawn) [Maltoheptaose, maltoheptaose, reference compound]",0.271,6.6%,93.4%,100%,–
"OC[C@H]1O[C@H](O[C@H]2O[C@H](CO)[C@@H](O)[C@H](O)[C@H]2O)[C@H](O)[C@@H](O)[C@@H]1O [Trehalose, alpha,alpha-trehalose]",0.006,–,–,–,"Reducing power (in words) [5]: exhibits no reducing power; Coloration relative to glucose and maltose ([1]; 480 nm, with glycine): 0.4-0.6%; Degradation by pig kidney trehalase (in words) (pig kidney trehalase): degraded by the trehalase derived from pig kidney; LD50 [6]: ≥ 50000 mg/kg; Animal death at the possible highest dose (mice): caused no death even in the possible highest dose; Time of maximum blood sugar level after administration ([7]; 20 w/v % aqueous solution): 0.5 to 1 h; Time of maximum insulin level after administration ([7]; 20 w/v % aqueous solution): 0.5 to 1 h; Assimilation (in words) ([7]; glucose as control): trehalose behaved similarly as glucose did; also recorded: readily digested and absorbed and then metabolized and utilized as energy source"

# Further lines, with some results ahead:
Coloration degree at 480 nm [1],Composition: residual substrate [2],Composition: newly formed saccharide [2],Composition: residual substrate [4],SMILES,other results
0.926,100.0%,–,–,"OC[C@H]1O[C@H](O[C@H]2[C@H](O)[C@@H](O)C(O)O[C@@H]2CO)[C@H](O)[C@@H](O)[C@@H]1O (mixture of isomers) [Maltose, maltose]",Formation of new saccharides from substrate (in words) [2]: No saccharides were newly formed
0.318,6.5%,93.5%,100%,"OC[C@H]1O[C@H](O[C@H]2[C@H](O)[C@@H](O)[C@@H](O[C@H]3[C@H](O)[C@@H](O)[C@@H](O[C@H]4[C@H](O)[C@@H](O)[C@@H](O[C@H]5[C@H](O)[C@@H](O)[C@@H](O[C@H]6[C@H](O)[C@@H](O)C(O)O[C@@H]6CO)O[C@@H]5CO)O[C@@H]4CO)O[C@@H]3CO)O[C@@H]2CO)[C@H](O)[C@@H](O)[C@@H]1O (stereo partly drawn) [Maltohexaose, maltohexaose, reference compound]",–
0.369,7.3%,92.7%,100%,"OC[C@H]1O[C@H](O[C@H]2[C@H](O)[C@@H](O)[C@@H](O[C@H]3[C@H](O)[C@@H](O)[C@@H](O[C@H]4[C@H](O)[C@@H](O)[C@@H](O[C@H]5[C@H](O)[C@@H](O)C(O)O[C@@H]5CO)O[C@@H]4CO)O[C@@H]3CO)O[C@@H]2CO)[C@H](O)[C@@H](O)[C@@H]1O (stereo partly drawn) [Maltopentaose, maltopentaose, reference compound]",–
0.475,14.4%,85.6%,100%,"OC[C@H]1O[C@H](O[C@H]2[C@H](O)[C@@H](O)[C@@H](O[C@H]3[C@H](O)[C@@H](O)[C@@H](O[C@H]4[C@H](O)[C@@H](O)C(O)O[C@@H]4CO)O[C@@H]3CO)O[C@@H]2CO)[C@H](O)[C@@H](O)[C@@H]1O (stereo partly drawn) [Maltotetraose, maltotetraose, reference compound]",–
0.623,65.0%,35.0%,100%,"OC[C@H]1O[C@H](O[C@H]2[C@H](O)[C@@H](O)[C@@H](O[C@H]3[C@H](O)[C@@H](O)C(O)O[C@@H]3CO)O[C@@H]2CO)[C@H](O)[C@@H](O)[C@@H]1O (stereo partly drawn) [Maltotriose, maltotriose, reference compound]",–
